Source: patent US9072712B2, “Synergistic antimicrobial preparations containing chlorite and hydrogen peroxide” (priority 1999, dated 2015)
Entries after “also recorded” stand apart in the source; their conditions may differ.

Assays:
[1] = system: S. haemolyticus keratitis in rabbits; assay: In-vivo antimicrobial efficacy in infectious S. haemolyticus keratitis (corneal CFU)
Description: (§1) After 24 hours, all corneas were likewise infected, and the rabbits were divided randomly into three groups. The rabbits (five) of Group I then were treated with the chlorite-hydrogen peroxide formulation defined above as cleaning while wearing contact lenses (here termed “Bactericide”); the rabbits (five) of Group II were treated with commercially available 0.3% ofloxacin antibiotic ophthalmic solution; and the rabbits (two) of Group III were untreated to serve as a control. At 24 and 48 hours post infection, the rabbits underwent visual eye examination, photographic documentation and biomicroscopy. After 24 hours of treatment, three animals each from Groups I and II and one animal from Group III were sacrificed. The eyes were enucleated and an 8 mm disc of cornea was homogenized and plated onto growth media for microbial isolation and quantification. After 48 hours of treatment, the same procedure was followed for the remaining animals.

[2] = system: S. haemolyticus keratitis in rabbits; assay: In-vivo clinical efficacy in infectious S. haemolyticus keratitis
Description: as §1

human eye = conditions: hydrogen peroxide without sodium chlorite (0.01 wt. %); cited from earlier work
[3] = system: antibiotic-resistant strain of pseudomonas aeruginosa; assay: In-vitro antimicrobial effect (log reduction); type: cell-based
[4] = system: antibiotic-resistant strain of staphylococcus haemolyticus; assay: In-vitro antimicrobial effect (log reduction); type: cell-based
normal human eyes = conditions: in the presence of sodium chlorite (400 ppm)
Description: Two drops of each formulation were then placed in the cul-de-sac of two normal human eyes. Upon instillation of the drops, the subjects were instructed to close their eyelids.

[5] = 24 hours after infection (before treatment)

For CC1COc2c(N3CCN(C)CC3)c(F)cc3c(=O)c(C(=O)O)cn1c23 (stereo not drawn) [0.3% Ofloxacin, ofloxacin], the “bacteria isolated from 8 mm disc of cornea, Average” value ([1]; 24 hours post treatment) was 13,000 CFU, the “bacteria isolated from 8 mm disc of cornea, individual animals” value ([1]; 24 hours post treatment) was “iii) 11,000 CFU; also recorded: i) 23,000 CFU; also recorded: ii) 5,000 CFU” and the “bacteria isolated from 8 mm disc of cornea, Average” value ([1]; 48 hours post treatment) was 5,100 CFU. The “bacteria isolated from 8 mm disc of cornea, individual animals” value ([1]; 48 hours post treatment) was “i) 5,000 CFU; also recorded: ii) 5,200 CFU”, the corneal edema score [2, 5] was “corneal edema (+2)” and the hyperemia score [2, 5] was “hyperemia (+2)”. For the same compound, the inflammation score [2, 5] was “inflammation(+2)”, the corneal edema score ([2]; 24 hours after treatment) was “corneal edema (+2)” and the hyperemia score ([2]; 24 hours after treatment) was “hyperemia (+2)”. For the same compound, the inflammation score ([2]; 24 hours after treatment) was “inflammation(+2)”, the corneal edema score ([2]; 48 hours after treatment) was “corneal edema (+1)” and the hyperemia score ([2]; 48 hours after treatment) was “hyperemia (+1)”. The inflammation score ([2]; 48 hours after treatment) was “inflammation(+1)”.
In the case of OO [H202 alone, hydrogen peroxide], the “upper limit of human ocular tolerability” value (human eye) is listed as “about 100 ppm”, the “Log Reduction” value ([3]; 200 ppm, 1 hour) is listed as 0.01 and the “Log Reduction” value ([3]; 200 ppm, 2 hours) is listed as 0.54. The “Log Reduction” value ([4]; 200 ppm, 1 hour) was 0.20, the “Log Reduction” value ([4]; 200 ppm, 2 hours) was 0.23 and the “hydrogen peroxide levels very well tolerated by human eyes” value (normal human eyes) was “up to 500 ppm”.
In the case of sodium chlorite [NaClO2 alone], the “Log Reduction” value ([3]; 400 ppm, 1 hour) is reported as 0.351, the “Log Reduction” value ([3]; 400 ppm, 1 hour, listed as sodium chlorite) is reported as 0.35 and the “Log Reduction” value ([3]; 400 ppm, 2 hours) is reported as 1.35. For the same compound, the “Log Reduction” value ([4]; 400 ppm, 1 hour) was 0.11 and the “Log Reduction” value ([4]; 400 ppm, 2 hours) was 1.01.
